Laboratory results as given in the CheMixHub ionic liquid set.

Assay: xn = mol fraction of the nth substance listed

CC(=O)[O-].CCCCCC[n+]1ccccc1 + O
electrical conductivity [S/m], 101 kPa
Conditions	x1 = 0.8711	x1 = 0.8907	x1 = 0.9081	x1 = 0.9293	x1 = 0.9699	x2 = 0.007385
293.15 K	0.00457	0.00421	0.00389	0.00337	0.00259	0.00201
298.15 K	0.0076	0.00693	0.00609	0.00551	0.00409	0.00282
303.15 K	0.0127	0.0115	0.0102	0.009	0.00656	0.005
308.15 K	0.0171	0.0156	0.0139	0.0122	0.00887	0.00746
313.15 K	0.0256	0.0229	0.0209	0.0181	0.014	0.0112
318.15 K	0.0371	0.0331	0.03	0.0264	0.019	0.0155
323.15 K	0.0501	0.0451	0.041	0.0365	0.0271	0.0224
328.15 K	0.067	0.0608	0.0551	0.0496	0.0372	0.0318
333.15 K	0.091	0.081	0.0727	0.0639	0.0487	0.0414
338.15 K	0.124	0.111	0.101	0.0894	0.0694	0.0592
343.15 K	0.163	0.148	0.135	0.119	0.0952	0.0819

CC(=O)[O-].CCCCC[n+]1ccccc1 + O
101 kPa
Conditions	electrical conductivity [S/m]
293.15 K, x1 = 0.9144	0.00606
293.15 K, x1 = 0.9163	0.006
293.15 K, x1 = 0.9314	0.00537
293.15 K, x1 = 0.948	0.00491
293.15 K, x1 = 0.9673	0.00428
293.15 K, x2 = 0.002318	0.00338
298.15 K, x1 = 0.9163	0.0103
298.15 K, x1 = 0.9314	0.00935
298.15 K, x1 = 0.948	0.00808
298.15 K, x1 = 0.9673	0.00703
298.15 K, x2 = 0.002318	0.00533
303.15 K, x1 = 0.9314	0.0157
303.15 K, x2 = 0.002318	0.00815
308.15 K, x1 = 0.9163	0.025
308.15 K, x1 = 0.9314	0.0221
313.15 K, x1 = 0.9163	0.0356
318.15 K, x1 = 0.9163	0.0509
318.15 K, x1 = 0.948	0.0396
318.15 K, x1 = 0.9673	0.0345
318.15 K, x2 = 0.002318	0.0267
323.15 K, x1 = 0.9163	0.0695
323.15 K, x2 = 0.002318	0.0339
328.15 K, x1 = 0.9314	0.081
333.15 K, x1 = 0.9144	0.13
338.15 K, x1 = 0.9144	0.175
338.15 K, x1 = 0.948	0.13
343.15 K, x1 = 0.9314	0.193

CC(N)C(=O)[O-].CCCC[n+]1ccn(C)c1C + O
viscosity [mPa·s], 100 kPa
Conditions	x1 = 0.1003	x1 = 0.3009	x1 = 0.6987	x1 = 1
293.15 K	22.3	–	200	370
313.15 K	–	–	70	–
318.15 K	–	18.9	–	87

CCCCCCCCCCCC[N+](C)(C)Cc1ccccc1.[Cl-] + O
electrical conductivity [S/m], 101 kPa
Conditions	293.15 K	298.15 K	303.15 K	308.15 K	313.15 K
x1 = 5.874e-05	0.0232	0.0261	0.0289	0.0318	0.0349
x1 = 8e-05	0.0313	0.0351	0.0389	0.0428	0.0469
x1 = 9.982e-05	0.0388	0.0434	0.0481	0.053	0.0579
x1 = 0.0001187	0.0459	0.0513	0.0569	0.0626	0.0686
x1 = 0.0001384	0.0531	0.0594	0.0658	0.0724	0.0792
x1 = 0.0001594	0.0603	0.0673	0.0744	0.0819	0.0899
x1 = 0.000182	0.0659	0.0734	0.0812	0.0897	0.0989
x1 = 0.0002056	0.0702	0.0783	0.087	0.0963	0.106
x1 = 0.0002284	0.0741	0.0827	0.092	0.102	0.113
x1 = 0.0002522	0.0778	0.0871	0.0969	0.108	0.12
x1 = 0.0002717	0.0809	0.0906	0.101	0.113	0.125
x1 = 0.0002895	0.0836	0.0937	0.105	0.117	0.13
x1 = 0.0003122	0.0872	0.0978	0.109	0.122	0.136

CCCCCCCCCC[N+](CC)(CC)CCCCCCCCCC.[Br-] + O
electrical conductivity [S/m]
Conditions	290.55 K	290.75 K	290.85 K	292.05 K	301.55 K	303.15 K	304.55 K	306.65 K	311.65 K
100 kPa, x1 = 1.08e-06	–	–	–	–	–	0.0029	–	–	–
101 kPa, x1 = 0.0004187	0.031	0.033	0.034	0.053	0.079	–	0.082	0.084	0.089

CCCCCCCCn1cc[n+](CCCCCCCC)c1.O=S(=O)([N-]S(=O)(=O)C(F)(F)F)C(F)(F)F + O
100 kPa, x2 = 0.1246
Conditions	viscosity [mPa·s]
303.15 K	92.9
308.15 K	73.29
358.15 K	13.27

CCCC[n+]1ccccc1.O=S(=O)([O-])C(F)(F)F + O
298.15 K, 101 kPa
Conditions	electrical conductivity [S/m]
x1 = 0.000164	0.071
x1 = 0.0004107	0.156
x1 = 0.0005313	0.208
x1 = 0.0007077	0.277
x1 = 0.0008912	0.323
x1 = 0.001062	0.395
x1 = 0.001253	0.46
x1 = 0.001353	0.501
x1 = 0.001468	0.53
x1 = 0.001598	0.586
x1 = 0.001845	0.651
x1 = 0.001955	0.674
x1 = 0.002188	0.732
x1 = 0.002246	0.746
x1 = 0.002362	0.777
x1 = 0.002429	0.785
x1 = 0.002452	0.795
x1 = 0.002604	0.836
x1 = 0.002771	0.869
x1 = 0.00288	0.909
x1 = 0.003079	0.96

CCCC[n+]1ccccc1C.F[B-](F)(F)F + O
298.15 K, 101 kPa
Conditions	electrical conductivity [S/m]
x1 = 0.0002702	0.13
x1 = 0.0004161	0.188
x1 = 0.0005097	0.233
x1 = 0.0007329	0.319
x1 = 0.0008948	0.368
x1 = 0.001084	0.463
x1 = 0.001244	0.516
x1 = 0.001427	0.588
x1 = 0.001581	0.634
x1 = 0.001768	0.707
x1 = 0.001923	0.76
x1 = 0.002048	0.787
x1 = 0.00219	0.841
x1 = 0.002294	0.878
x1 = 0.002423	0.917
x1 = 0.002448	0.92
x1 = 0.002543	0.96
x1 = 0.002708	1
x1 = 0.002791	1.03
